The source made the active and inactive calls. No cut-off for these calls is given here.
Legend:
DMS-273 = assay: Growth inhibition of human DMS-273 cells measured after 48 hrs by sulforhodamine B assay; format: functional
GCIY [1] = assay: Induction of apoptosis in human GCIY cells assessed as activation of caspase 9 measured after 5 to 35 hrs by fluorescence assay; format: functional, cell-based; conditions: dose 1-10 µM, time 5-35 hrs
OVCAR-4 = assay: Growth inhibition of human OVCAR-4 cells measured after 48 hrs by sulforhodamine B assay; format: functional
HCC 2998 = assay: Growth inhibition of human HCC 2998 cells measured after 48 hrs by sulforhodamine B assay; format: functional
GCIY [2] = assay: Cell cycle arrest in human GCIY cells assessed as accumulation at S phase at 0.3 uM measured after 24 hrs by propidium iodide staining based Muse cell analyzer (reference value: 25.7 +/- 0.7 %); format: functional
GCIY [3] = assay: Cell cycle arrest in human GCIY cells assessed as accumulation at S phase at 0.1 uM measured after 24 hrs by propidium iodide staining based Muse cell analyzer (reference value: 25.7 +/- 0.7 %); format: functional
SF-268 = assay: Growth inhibition of human SF-268 cells measured after 48 hrs by sulforhodamine B assay; format: functional
OVCAR-8 = assay: Growth inhibition of human OVCAR-8 cells measured after 48 hrs by sulforhodamine B assay; format: functional
GCIY [4] = assay: Antitumor activity against human GCIY cells xenografted in KSN/Slc nude mouse assessed as reduction in tumor size at 40 mg/kg, ip administered twice a week for 4 weeks starting from day 4 post inoculation by vernier caliper method; format: functional, organism-based
MKN-1 [5] = assay: Cell cycle arrest in human MKN-1 cells assessed as accumulation at G2/M phase at 0.3 uM measured after 24 hrs by propidium iodide staining based Muse cell analyzer (reference value: 33.2 +/- 0.5 %); format: functional
NCI-H460 = assay: Growth inhibition of human NCI-H460 cells measured after 48 hrs by sulforhodamine B assay; format: functional
SNB-75 = assay: Growth inhibition of human SNB-75 cells measured after 48 hrs by sulforhodamine B assay; format: functional
MKN-1 [6] = assay: Cell cycle arrest in human MKN-1 cells assessed as accumulation at S phase at 0.1 uM measured after 24 hrs by propidium iodide staining based Muse cell analyzer (reference value: 15.5 +/- 0.2 %); format: functional
GCIY [7] = assay: Cell cycle arrest in human GCIY cells assessed as accumulation at G0/G1 phase at 0.1 uM measured after 24 hrs by propidium iodide staining based Muse cell analyzer (reference value: 43 +/- 2.2 %); format: functional
PC-3 = assay: Growth inhibition of human PC-3 cells measured after 48 hrs by sulforhodamine B assay; format: functional
A549 = assay: Growth inhibition of human A549 cells measured after 48 hrs by sulforhodamine B assay; format: functional
MKN-7 = assay: Growth inhibition of human MKN-7 cells measured after 48 hrs by sulforhodamine B assay; format: functional
GCIY [8] = assay: Cytotoxicity against human GCIY cells assessed as reduction in cell viability measured after 48 hrs by MTS/CellTiter96 aqueous one solution cell proliferation assay; format: functional, cell-based
GCIY [9] = assay: Induction of apoptosis in human GCIY cells assessed as activation of caspase 9 at 1 to 10 uM by fluorescence assay; format: functional, cell-based; conditions: dose 1-10 µM, time 5-35 hrs, TDE = time-dependent effect
[10] = Growth inhibition of human BSY1 cells measured after 48 hrs by sulforhodamine B assay; format: functional; conditions: BSY-1

For `CC(C)(O)[C@@H]1Cc2c(cc(O)c3c(=O)c(-c4ccc(O)cc4)coc23)O1`, which GI50 (DMS-273) is on record?
Its GI50 is 195 nM.

What about the Activity (GCIY [1]) of the same molecule?
The Activity was “Dose-dependent effect”.

And the GI50 (OVCAR-4)?
The GI50 was greater than 100000 nM.

What about the GI50 (HCC 2998) of the same molecule?
Its GI50 is 2040 nM.

And the Activity (GCIY [2])?
Its Activity is 7%.

And the Activity (GCIY [3])?
Its Activity is 22.4%.

And the GI50 (SF-268)?
The GI50 was 457 nM.

What about the GI50 (OVCAR-8) of the same molecule?
The GI50 was 417 nM.

And the Activity (GCIY [4])?
The Activity was “Active”.

And the Activity (MKN-1 [5])?
The Activity was 83.6%.

And the GI50 (NCI-H460)?
Its GI50 is 70.8 nM.

And the GI50 (SNB-75)?
The GI50 was 537 nM.

What about the Activity (MKN-1 [6]) of the same molecule?
Its Activity is 12.3%.

What about the Activity (GCIY [7]) of the same molecule?
Its Activity is 34.6%.

What about the GI50 (PC-3) of the same molecule?
Its GI50 is greater than 100000 nM.

And the GI50 (A549)?
Its GI50 is 120 nM.

What about the GI50 (MKN-7) of the same molecule?
The GI50 was 4370 nM.

What about the IC50 (GCIY [8]) of the same molecule?
The IC50 was 270 nM.

And the Activity (GCIY [9])?
The Activity was “Tde”.

What about the GI50 [10] of the same molecule?
The GI50 was 631 nM.
